PubChem BioAssay AID2060355 (Molecular Pharmacology Branch, DTP, NCI, 2025)

Test system: 485368-065-R4-J2-PDC spheroids with HUVEC/MSC, viability
Test: Anticancer human tumor 485368-065-R4-J2-PDC patient-derived pancreatic carcinoma cell line growth inhibition [TAK]
Settings: for IC50: curve of first compound; for viability, T/C: stronger effect = lower value
How it was run: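 Tumor cells were grown as spheroids with HUVEC and hMSC (60:25:15) and treated with targeted agents combined with TAK-243 or ipatasertib. Drugs were tested in half-log steps down from near the clinical Cmax, or from 10 microM where Cmax was unknown.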

[1] = second compound 0.3 µM, first compound 0.316 µM
[2] = second compound 0.3 µM, first compound 1 µM
[3] = second compound 0.3 µM, first compound 3.16 µM
[4] = second compound 0.3 µM, first compound 10 µM
[5] = second compound 0.949 µM, first compound 0.316 µM
[6] = second compound 0.949 µM, first compound 1 µM
[7] = second compound 0.949 µM, first compound 3.16 µM
[8] = second compound 0.949 µM, first compound 10 µM
[9] = second compound 3 µM, first compound 0.316 µM
[10] = second compound 3 µM, first compound 1 µM
[11] = second compound 3 µM, first compound 3.16 µM
[12] = second compound 3 µM, first compound 10 µM
[13] = second compound 9.49 µM, first compound 0.316 µM
[14] = second compound 9.49 µM, first compound 1 µM
[15] = second compound 9.49 µM, first compound 3.16 µM
[16] = second compound 9.49 µM, first compound 10 µM
[17] = second compound 30 µM, first compound 0.316 µM
[18] = second compound 30 µM, first compound 1 µM
[19] = second compound 30 µM, first compound 3.16 µM
[20] = second compound 30 µM, first compound 10 µM
[21] = second compound 0.3 µM, first compound 0.0316 µM
[22] = second compound 0.3 µM, first compound 0.1 µM
[23] = second compound 0.949 µM, first compound 0.0316 µM
[24] = second compound 0.949 µM, first compound 0.1 µM
[25] = second compound 3 µM, first compound 0.0316 µM
[26] = second compound 3 µM, first compound 0.1 µM
[27] = second compound 9.49 µM, first compound 0.0316 µM
[28] = second compound 9.49 µM, first compound 0.1 µM
[29] = second compound 30 µM, first compound 0.0316 µM
[30] = second compound 30 µM, first compound 0.1 µM
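Further: spheroids exposed to compounds for seven days before readout.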
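Wherever viability, T/C is given: 100% = DMSO vehicle control wells.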

SMILES	IC50 (second compound 0.3 µM) [nM]	IC50 (second compound 0.949 µM) [nM]	IC50 (second compound 3 µM) [nM]	IC50 (second compound 9.49 µM) [nM]	IC50 (second compound 30 µM) [nM]	viability, T/C [1] [%]	viability, T/C [2] [%]	viability, T/C [3] [%]	viability, T/C [4] [%]	viability, T/C [5] [%]	viability, T/C [6] [%]	viability, T/C [7] [%]	viability, T/C [8] [%]	viability, T/C [9] [%]	viability, T/C [10] [%]	viability, T/C [11] [%]	viability, T/C [13] [%]	viability, T/C [14] [%]	viability, T/C [17] [%]	viability, T/C [18] [%]	further results
CCCS(=O)(=O)Nc1ccc(F)c(C(=O)c2c[nH]c3ncc(-c4ccc(Cl)cc4)cc23)c1F + CC(C)NCC(C(=O)N1CCN(c2ncnc3c2C(C)CC3O)CC1)c1ccc(Cl)cc1	> 100000	> 100000	6760	6080	4180	107	101	93.5	50.3	103	100	85.7	40.8	101	99.5	78.1	96.7	95.6	84	83.8	viability, T/C (second compound 0.3 µM, first compound 31.6 µM): 24.3%; viability, T/C (second compound 0.3 µM, first compound 100 µM): 80.8%; viability, T/C (second compound 0.949 µM, first compound 31.6 µM): 25.1%; viability, T/C (second compound 0.949 µM, first compound 100 µM): 85.1%; viability, T/C [12]: 34.7%; viability, T/C (second compound 3 µM, first compound 31.6 µM): 29.8%; viability, T/C (second compound 3 µM, first compound 100 µM): 19.4%; viability, T/C [15]: 77.4%; viability, T/C [16]: 28.8%; viability, T/C (second compound 9.49 µM, first compound 31.6 µM): 20.2%; viability, T/C (second compound 9.49 µM, first compound 100 µM): 14.8%; viability, T/C [19]: 62.7%; viability, T/C [20]: 10.1%; viability, T/C (second compound 30 µM, first compound 31.6 µM): 10.2%; viability, T/C (second compound 30 µM, first compound 100 µM): 9.85%
COc1c(OCCCN2CCOCC2)ccc2c3n(c(=NC(=O)c4cnc(N)nc4)nc12)CCN3 + CC(C)NCC(C(=O)N1CCN(c2ncnc3c2C(C)CC3O)CC1)c1ccc(Cl)cc1	133	161	75.6	45.8	15.1	35.1	31.2	–	–	34.3	33.2	–	–	31.5	31.2	–	28.4	28	25.3	26.3	viability, T/C (second compound 0.3 µM, first compound 0.00316 µM): 91.7%; viability, T/C (second compound 0.3 µM, first compound 0.01 µM): 76.2%; viability, T/C [21]: 94.5%; viability, T/C [22]: 55.6%; viability, T/C (second compound 0.949 µM, first compound 0.00316 µM): 96.3%; viability, T/C (second compound 0.949 µM, first compound 0.01 µM): 100%; viability, T/C [23]: 84.6%; viability, T/C [24]: 61.1%; viability, T/C (second compound 3 µM, first compound 0.00316 µM): 95.9%; viability, T/C (second compound 3 µM, first compound 0.01 µM): 86.8%; viability, T/C [25]: 66.5%; viability, T/C [26]: 45.6%; viability, T/C (second compound 9.49 µM, first compound 0.00316 µM): 81%; viability, T/C (second compound 9.49 µM, first compound 0.01 µM): 72.8%; viability, T/C [27]: 56.6%; viability, T/C [28]: 37.2%; viability, T/C (second compound 30 µM, first compound 0.00316 µM): 60.4%; viability, T/C (second compound 30 µM, first compound 0.01 µM): 56.5%; viability, T/C [29]: 38.8%; viability, T/C [30]: 29.8%
Cc1nc(NC(=O)N2CCCC2C(N)=O)sc1-c1ccnc(C(C)(C)C(F)(F)F)c1 (stereo not given) + CC(C)NCC(C(=O)N1CCN(c2ncnc3c2C(C)CC3O)CC1)c1ccc(Cl)cc1	> 10000	9660	7350	2670	1220	81.9	88.3	75.9	51.1	102	93.5	73.4	49.3	86	73.7	64.3	74.1	66	59.5	53.5	viability, T/C [21]: 88.2%; viability, T/C [22]: 79.8%; viability, T/C [23]: 93.9%; viability, T/C [24]: 92%; viability, T/C [25]: 95.1%; viability, T/C [26]: 92.2%; viability, T/C [12]: 44.8%; viability, T/C [27]: 80.3%; viability, T/C [28]: 85.2%; viability, T/C [15]: 46.8%; viability, T/C [16]: 37.2%; viability, T/C [29]: 71.5%; viability, T/C [30]: 71.2%; viability, T/C [19]: 39.7%; viability, T/C [20]: 28.3%
